We go through 53 compounds from patent US12448373B2, “Azetidinyl-acetamides as CXCR7 inhibitors” (CHEMOCENTRYX, INC., priority 2021, dated 2025).

The term IC50 denotes the concentration that inhibits the measured activity by half. A high value points to weaker potency.

A value given as a limit tells only on which side of the number the result lay.

In the experiment the target is T1, CXCR7 (Homo sapiens, UniProt P25106).
T1 construct: expressed in transfected cells; host or cells: CHO cells (CHO-CXCR7), transgenes maintained with Hygromycin B and G418
T1 sequence (P25106 whole entry): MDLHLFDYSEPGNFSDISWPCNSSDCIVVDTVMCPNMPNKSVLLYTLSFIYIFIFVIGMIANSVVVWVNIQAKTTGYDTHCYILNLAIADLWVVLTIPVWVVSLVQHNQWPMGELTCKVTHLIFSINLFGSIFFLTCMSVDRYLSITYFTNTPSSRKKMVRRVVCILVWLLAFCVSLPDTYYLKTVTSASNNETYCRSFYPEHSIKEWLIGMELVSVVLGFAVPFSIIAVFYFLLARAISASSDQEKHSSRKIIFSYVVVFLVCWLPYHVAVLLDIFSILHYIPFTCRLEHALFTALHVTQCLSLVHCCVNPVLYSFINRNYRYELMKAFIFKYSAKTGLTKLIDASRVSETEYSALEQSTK
The experiment can be described thus: CXCR7 β-arrestin recruitment assay in CHO-CXCR7 cells (ProLink/EA β-galactosidase complementation), induced by human SDF-1a. Type of experiment: cell-based. As to conditions: assay buffer, SDF-1a at EC50 concentration. The gist of the method: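 SDF-1α-induced β-arrestin recruitment was measured by enzyme-fragment complementation (ProLink-CXCR7 with β-arrestin-EA) in stable CHO cells. Agonist was dosed at its EC50, determined the same day, alongside serially diluted compound for 1.5 h at 37 °C. Fluorogenic galactoside substrate (0.4 mM, 30 min) was read at 360/465 nm, with IC50 from 3-parameter nonlinear regression.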
(In general: Arrestin recruitment assays detect the binding of arrestin to an activated receptor.)
As to `COc1cncc(C(C)(C)NC(=O)CC2(NC(=O)c3cc(-c4ccc(F)cc4F)on3)CN([C@H]3CC[C@](C)(O)CC3)C2)c1` [Example 1.142], the IC50 was in the range of 5 to 100 nM.

For the compound `CC(C)(NC(=O)CC1(NC(=O)c2cc(-c3ccc(F)cc3F)on2)CN([C@H]2CC[C@@](C)(O)CC2)C1)c1cccc(C2CC2)c1` [Example 1.143], the IC50 lay within 5 to 100 nM.

In turn, `CC(C)(NC(=O)CC1(NC(=O)c2cc(-c3ccc(F)cc3F)on2)CN([C@H]2CC[C@](C)(O)CC2)C1)c1cccc(C2CC2)c1` [Example 1.144] returned an IC50 of 5 to 100 nM.

In turn, `CC(C)(O)CN1CC(CC(=O)NC(C)(C)c2cccc(C#N)c2)(NC(=O)c2cc(-c3ccc(F)cc3F)on2)C1` [Example 1.145] showed an IC50 of 5 to 100 nM.

The compound `CC(C)(NC(=O)CC1(NC(=O)c2cc(-c3ccc(F)cc3F)on2)CN([C@H]2CC[C@@](C)(O)CC2)C1)c1ccnc(C2CC2)c1` [Example 1.146] had a 50% inhibitory concentration (IC50) of 5 to 100 nM.

Regarding `CC(C)(NC(=O)CC1(NC(=O)c2cc(-c3ccc(F)cc3F)on2)CN([C@H]2CC[C@](C)(O)CC2)C1)c1ccnc(C2CC2)c1` [Example 1.147], the IC50 is 5 to 100 nM.

The compound `CCc1cc(C(C)(C)NC(=O)CC2(NC(=O)c3cc(-c4ccc(F)cc4F)on3)CN([C@H]3CC[C@@](C)(O)CC3)C2)ccn1` [Example 1.148] came in with an IC50 of 5 to 100 nM.

In turn, `CCc1cc(C(C)(C)NC(=O)CC2(NC(=O)c3cc(-c4ccc(F)cc4F)on3)CN([C@H]3CC[C@](C)(O)CC3)C2)ccn1` [Example 1.149] yielded a half-inhibitory concentration (IC50) of 5 to 100 nM.

In the case of `Cc1cc(C(C)(C)NC(=O)CC2(NC(=O)c3cc(-c4ccc(F)cc4F)on3)CN(CC3(O)CCC3)C2)ccn1` [Example 1.150], the IC50 was in the range of 100 to 1000 nM.

On to `Cc1cc(C(C)(C)NC(=O)CC2(NC(=O)c3cc(-c4ccc(F)cc4F)on3)CN(CC3(C)COC3)C2)ccn1` [Example 1.151], for which the IC50 lay within 5 to 100 nM.

Turning to `CC(C)(NC(=O)CC1(NC(=O)c2cc(-c3ccc(F)cc3F)on2)CN([C@H]2CC[C@@](C)(O)CC2)C1)c1cc(F)cc(F)c1` [Example 1.152], the IC50 was under 5 nM.

The compound `CC(C)(NC(=O)CC1(NC(=O)c2cc(-c3ccc(F)cc3F)on2)CN([C@H]2CC[C@](C)(O)CC2)C1)c1cc(F)cc(F)c1` [Example 1.153] yielded a 50% inhibitory concentration (IC50) of under 5 nM.

In turn, `COc1cc(Cl)cc(C(C)(C)NC(=O)CC2(NC(=O)c3cc(-c4ccc(F)cc4F)on3)CN(CC(C)(C)O)C2)c1` [Example 1.154] registered a half-maximal inhibitory concentration (IC50) of under 5 nM.

Compound `CC(C)(NC(=O)CC1(NC(=O)c2cc(-c3ccc(F)cc3F)on2)CN([C@H]2CC[C@@](C)(O)CC2)C1)c1cccc(C(F)(F)F)n1` [Example 1.155] showed an IC50 of under 5 nM.

Regarding `CC(C)(NC(=O)CC1(NC(=O)c2cc(-c3ccc(F)cc3F)on2)CN([C@H]2CC[C@](C)(O)CC2)C1)c1cccc(C(F)(F)F)n1` [Example 1.156], the IC50 was under 5 nM.

Regarding `CC(C)(NC(=O)CC1(NC(=O)c2cc(-c3ccc(F)cc3F)on2)CN([C@H]2CC[C@@](C)(O)CC2)C1)c1cnccn1` [Example 1.157], the IC50 lay within 5 to 100 nM.

Consider `CC(C)(NC(=O)CC1(NC(=O)c2cc(-c3ccc(F)cc3F)on2)CN([C@H]2CC[C@](C)(O)CC2)C1)c1cnccn1` [Example 1.158], for which the IC50 was 5 to 100 nM.

The compound `Cc1cc(C(C)(C)NC(=O)CC2(NC(=O)c3cc(-c4ccc(F)cc4F)on3)CN(C3CCC4(CC3)COC4)C2)ccn1` [Example 1.159] showed an IC50 of 5 to 100 nM.

The compound `COc1cc(Cl)cc(C(C)(C)NC(=O)CC2(NC(=O)c3cc(-c4ccc(F)cc4F)on3)CN([C@H]3CC[C@@](C)(O)CC3)C2)c1` [Example 1.160] displayed an IC50 of under 5 nM.

Consider `CC(C)(NC(=O)CC1(NC(=O)c2cc(-c3ccc(F)cc3F)on2)CN([C@H]2CC[C@@](C)(O)CC2)C1)c1ccnc(C#N)c1` [Example 1.161], for which the half-maximal inhibitory concentration (IC50) was 5 to 100 nM.

For `CC(C)(NC(=O)CC1(NC(=O)c2cc(-c3ccc(F)cc3F)on2)CN([C@H]2CC[C@](C)(O)CC2)C1)c1ccnc(C#N)c1` [Example 1.162], the half-maximal inhibitory concentration (IC50) was 5 to 100 nM.

The compound `Cc1ccnc(C(C)(C)NC(=O)CC2(NC(=O)c3cc(-c4ccc(F)cc4F)on3)CN([C@H]3CC[C@@](C)(O)CC3)C2)c1` [Example 1.163] gave an IC50 of under 5 nM.

Regarding `Cc1ccnc(C(C)(C)NC(=O)CC2(NC(=O)c3cc(-c4ccc(F)cc4F)on3)CN([C@H]3CC[C@](C)(O)CC3)C2)c1` [Example 1.164], the IC50 is under 5 nM.

For the compound `COc1cc(Cl)cc(C(C)(C)NC(=O)CC2(NC(=O)c3cc(-c4ccc(F)cc4F)on3)CN([C@H]3CC[C@](C)(O)CC3)C2)c1` [Example 1.165], the IC50 is under 5 nM.

`CC(C)(NC(=O)CC1(NC(=O)c2cc(-c3ccc(F)cc3F)on2)CN([C@H]2CC[C@](C)(O)CC2)C1)c1ccnc(C(F)(F)F)c1` [Example 1.166] came in with an IC50 of 5 to 100 nM.

`COc1cc(C)nc(C(C)(C)NC(=O)CC2(NC(=O)c3cc(-c4ccc(F)cc4F)on3)CN([C@H]3CC[C@@](C)(O)CC3)C2)n1` [Example 1.167] showed a concentration for half-maximal inhibition (IC50) of under 5 nM.

With `Cc1cc(C)nc(C(C)(C)NC(=O)CC2(NC(=O)c3cc(-c4ccc(F)cc4F)on3)CN([C@H]3CC[C@](C)(O)CC3)C2)n1` [Example 1.168], the IC50 is under 5 nM.

Compound `COc1cc(F)cc(C(C)(C)NC(=O)CC2(NC(=O)c3cc(-c4ccc(F)cc4F)on3)CN([C@H]3CC[C@@](C)(O)CC3)C2)c1` [Example 1.169] displayed a 50% inhibitory concentration (IC50) of under 5 nM.

For the compound `COc1cc(F)cc(C(C)(C)NC(=O)CC2(NC(=O)c3cc(-c4ccc(F)cc4F)on3)CN([C@H]3CC[C@](C)(O)CC3)C2)c1` [Example 1.170], the IC50 was 5 to 100 nM.

With `COc1cc(C(C)(C)NC(=O)CC2(NC(=O)c3cc(-c4ccc(F)cc4F)on3)CN(CC(C)(C)O)C2)ccn1` [Example 1.171], the concentration for half-maximal inhibition (IC50) is 100 to 1000 nM.

`CC(C)(NC(=O)CC1(NC(=O)c2cc(-c3ccc(F)cc3F)on2)CN([C@H]2CC[C@@](C)(O)CC2)C1)c1cccc(C#N)c1` [Example 1.172] gave an IC50 of under 5 nM.

Take `CC(C)(NC(=O)CC1(NC(=O)c2cc(-c3ccc(F)cc3F)on2)CN([C@H]2CC[C@](C)(O)CC2)C1)c1cccc(C#N)c1` [Example 1.173]: the IC50 was under 5 nM.

Turning to `COc1cccc(C(C)(C)NC(=O)CC2(NC(=O)c3cc(-c4ccc(F)cc4F)on3)CN(CC3(C)COC3)C2)c1` [Example 1.174], the IC50 is 100 to 1000 nM.

Compound `Cc1cc(C(C)(C)NC(=O)CC2(NC(=O)c3cc(-c4ccc(F)cc4F)on3)CN(CC(C)(C)O)C2)ccn1` [Example 1.175] came in with a concentration for half-maximal inhibition (IC50) of 5 to 100 nM.

The compound `COc1cc(C(C)(C)NC(=O)CC2(NC(=O)c3cc(-c4ccc(F)cc4F)on3)CN([C@H]3CC[C@@](C)(O)CC3)C2)ccc1F` [Example 1.176] showed an IC50 of 5 to 100 nM.

For `COc1cc(C(C)(C)NC(=O)CC2(NC(=O)c3cc(-c4ccc(F)cc4F)on3)CN([C@H]3CC[C@](C)(O)CC3)C2)ccc1F` [Example 1.177], the IC50 was in the range of 5 to 100 nM.

As to `CC(C)(O)CN1CC(CC(=O)NC(C)(C)c2cccc(Cl)c2)(NC(=O)c2cc(-c3ccc(F)cc3F)on2)C1` [Example 1.178], the IC50 was under 5 nM.

`COc1cccc(C(C)(C)NC(=O)CC2(NC(=O)c3cc(-c4ccc(F)cc4F)on3)CN(CC(C)(C)O)C2)c1` [Example 1.179] yielded an IC50 of 5 to 100 nM.

The compound `CC(C)(NC(=O)CC1(NC(=O)c2cc(-c3ccc(F)cc3F)on2)CN([C@H]2CC[C@@](C)(O)CC2)C1)c1ccncc1` [Example 1.180] gave an IC50 of under 5 nM.

`CC(C)(NC(=O)CC1(NC(=O)c2cc(-c3ccc(F)cc3F)on2)CN([C@H]2CC[C@](C)(O)CC2)C1)c1ccncn1` [Example 1.181] returned a half-maximal inhibitory concentration (IC50) of 5 to 100 nM.

On to `CC(C)(NC(=O)CC1(NC(=O)c2cc(-c3ccc(F)cc3F)on2)CN([C@H]2CC[C@](C)(O)CC2)C1)c1ccncc1` [Example 1.182], for which the IC50 is under 5 nM.

For `COc1cccc(C(C)(C)NC(=O)CC2(NC(=O)c3cc(-c4ccc(F)cc4F)on3)CN(C3CCC4(CC3)COC4)C2)c1` [Example 1.183], the IC50 was 5 to 100 nM.

In turn, `Cc1ccc(F)c(C(C)(C)NC(=O)CC2(NC(=O)c3cc(-c4ccc(F)cc4F)on3)CN([C@H]3CC[C@@](C)(O)CC3)C2)c1` [Example 1.184] gave an IC50 of under 5 nM.

Compound `Cc1ccc(F)c(C(C)(C)NC(=O)CC2(NC(=O)c3cc(-c4ccc(F)cc4F)on3)CN([C@H]3CC[C@](C)(O)CC3)C2)c1` [Example 1.185] showed an IC50 of under 5 nM.

For the compound `CCOc1cccc(C(C)(C)NC(=O)CC2(NC(=O)c3cc(-c4ccc(F)cc4F)on3)CN([C@H]3CC[C@@](C)(O)CC3)C2)c1` [Example 1.186], the IC50 lay within 5 to 100 nM.

`CCOc1cccc(C(C)(C)NC(=O)CC2(NC(=O)c3cc(-c4ccc(F)cc4F)on3)CN([C@H]3CC[C@](C)(O)CC3)C2)c1` [Example 1.187] gave an IC50 of 5 to 100 nM.

As for `COc1cc(C(C)(C)NC(=O)CC2(NC(=O)c3cc(-c4ccc(F)cc4F)on3)CN([C@H]3CC[C@@](C)(O)CC3)C2)ccn1` [Example 1.188], the IC50 was under 5 nM.

`COc1cc(C(C)(C)NC(=O)CC2(NC(=O)c3cc(-c4ccc(F)cc4F)on3)CN([C@H]3CC[C@](C)(O)CC3)C2)ccn1` [Example 1.189] came in with a half-inhibitory concentration (IC50) of under 5 nM.

In the case of `C[C@]1(O)CC[C@@H](N2CC(CC(=O)NC3(c4ccccn4)CC3)(NC(=O)c3cc(-c4ccc(F)cc4F)on3)C2)CC1` [Example 1.190], the IC50 is 5 to 100 nM.

As for `C[C@]1(O)CC[C@H](N2CC(CC(=O)NC3(c4ccccn4)CC3)(NC(=O)c3cc(-c4ccc(F)cc4F)on3)C2)CC1` [Example 1.191], the 50% inhibitory concentration (IC50) is 5 to 100 nM.

As for `CC(C)(NC(=O)CC1(NC(=O)c2cc(-c3ccc(F)cc3F)on2)CN([C@H]2CC[C@@](C)(O)CC2)C1)c1ccccn1` [Example 1.192], the half-inhibitory concentration (IC50) was under 5 nM.

As to `CC(C)(NC(=O)CC1(NC(=O)c2cc(-c3ccc(F)cc3F)on2)CN([C@H]2CC[C@@](C)(O)CC2)C1)c1cccnc1` [Example 1.193], the concentration for half-maximal inhibition (IC50) was 5 to 100 nM.

The compound `CC(C)(NC(=O)CC1(NC(=O)c2cc(-c3ccc(F)cc3F)on2)CN([C@H]2CC[C@](C)(O)CC2)C1)c1cccnc1` [Example 1.194] registered an IC50 of 5 to 100 nM.
